Assay results: patent US9814714B2, “Kinase modulation, and indications therefor” (Plexxikon Inc., priority 2015, dated 2017)

Tests used:
[1] = target: BRAF_V600A (Homo sapiens, UniProt P15056, V600A); test: RAF kinase biochemical assay, BRAF V600A; details: Table 3; ATP 100 μM
Procedure: (§1) BRAF proteins were produced in insect cells at Plexxikon Inc. as N-terminally His-tagged fragments encompassing the kinase domain.
(§2) 1) Test compounds in DMSO were serially diluted and plated into 384-well assay plates at 1 μL/well.
(§3) 2) Added were 15 μL/well of RAF enzyme and biotinylated-MEK1 substrate in kinase buffer.
(§4) 3) Added were 4 μL of ATP (500 μM) in kinase buffer.
(§5) 5) After a brief spin down, the plate was incubated at about room temperature for 40-50 minutes. 6) Added was 5 μL of Stop buffer at final EDTA 20 mM; anti-phospho-MEK1 1:2,500; donor/acceptor beads 3 μg/mL. 7) After brief spin down, the plate was incubated at room temperature for about 3 hours. 8) The plate was read on the Envision multilabel plate reader (Perkin Elmer). […] 2. Results

[2] = test system: NOMO-1 cells; test: Growth assay (CellTiter-Glo), NOMO-1; type: cell-based; details: Homo sapiens, NOMO-1, 72 h; acute myeloid leukemia; BRAF WT, KRAS-G13D; 3 days
Description: (§6) In order to determine the effects of Formula I on proliferation, a growth assay was established using melanoma cells (A375 and COLO829) and colorectal carcinoma cells (COLO205, HT-29) which each express the BRAFV600E mutation. To show selectivity over wild-type BRAF, several BRAF wild-type cell lines (K562, NOMO-1, MV-4-11 and ML-2) were also examined in the growth assay. The growth assay implemented the Promega CellTiter-Glo Luminescent Cell viability assay, which gives a luminescent readout that is proportional to the amount of ATP present in a cell sample. As ATP levels directly correlate with the number of viable cells, the luminescent signal can be used to determine the potency of Formula I to block the proliferation of the cell lines of interest.
(§7) 1. 3,000 cells were plated in each well for cell lines A375, COLO205, COLO829, HT-29, and SK-MEL-3. 25,000 cells were plated in each well for cell lines K562, ML-2, MV-4-11, and
(§8) NOMO-1 of a 96-well tissue-culture-treated plate (Corning #3610) in a 50 μL volume. Cells were incubated overnight at 37° C.
(§9) 2. Each test compound was plated as an 8-point titration, using 1:3 dilutions in DMSO. The maximum concentration was about 5 mM. Dilute DMSO and test compound of Formula I 1:250 in growth media.
3. […]
(§10) 4. […] Luminescence was measured on a Tecan Safire plate reader. […]

[3] = test system: BRAF-V600E in vemurafenib-resistant SK-MEL-239 C3 cells
[4] = target: BRAF_V600K (Homo sapiens, UniProt P15056, V600K); test: RAF kinase biochemical assay, BRAF V600K; details: Table 3; ATP 100 μM
Procedure: as §1, §2, §3, §4, §5

[5] = test system: K562 cells; test: Growth assay (CellTiter-Glo), K562; type: cell-based; details: Homo sapiens, K562, 72 h; chronic myeloid leukemia; BRAF WT, RAS WT; 3 days
Description: as §6, §7, §8, §9
3. […]
as §10

[6] = test system: ML-2 cells; test: Growth assay (CellTiter-Glo), ML-2; type: cell-based; details: Homo sapiens, ML-2, 72 h; acute myelomonocytic leukemia; BRAF WT, KRAS-A146T; 3 days
Description: as §6, §7, §8, §9
3. […]
as §10

[7] = test system: HT-29 cells; test: Growth assay (CellTiter-Glo), HT-29; type: cell-based; details: Homo sapiens, HT-29, 72 h; colorectal adenocarcinoma; BRAF V600E/WT, RAS WT; 3 days
Description: as §6, §7, §8, §9
3. […]
as §10

[8] = target: BRAF_V600R (Homo sapiens, UniProt P15056, V600R); test: RAF kinase biochemical assay, BRAF V600R; details: Table 3; ATP 100 μM
Procedure: as §1, §2, §3, §4, §5

[9] = test system: BRAF-V600E in SK-MEL-239 parental cells; test: ERK/MEK phosphorylation and growth assays, SK-MEL-239 parental; type: cell-based
[10] = target: NIH/3T3 cells stably expressing KIAA1549-BRAF fusions (Homo sapiens, UniProt P15056); test: BRAF fusion xenograft tumor growth; type: in vivo, balb/c nu/nu mice; details: all three xenografts (three of the four KIAA1549-BRAF fusions); flank of balb/c nu/nu mice
Procedure: NIH/3T3 (ATCC® CRL-1658™) cells stably expressing KIAA1549-BRAF fusions (Fusion-1, Fusion-2, Fusion-3, and Fusion-4) were injected into the flank of balb/c nu/nu mice. Tumor growth was measured with calipers. Ellipsoid tumor volume was calculated using the following formula: volume=½·length·width^2.

[11] = test system: pERK in A431 cells (over-expression of EGFR); test: pERK levels in A431; type: cell-based; details: human SCC cell line
Procedure: The compound of Formula II was also evaluated in the human SCC cell line A431 and the human breast adenocarcinoma cell line SKBR3 as these cells achieve MAPK pathway activation by upstream signals feeding into RAS (through over-expression of EGFR and HER2, respectively).
Phospho-ERK AlphaScreen® assay: The degree of ERK phosphorylation was determined using an AlphaScreen® assay where an increase in ERK1/2 phosphorylation at Thr202/Tyr204 brought the donor and acceptor AlphaScreen® beads into close proximity, generating a signal for quantification. To determine the effects of compound treatment on phosphorylation of ERK1/2, cells were plated in a 96-well plate and treated with an 8-point titration of compound for one hour at 37° C. before lysis. To detect pERK, cell lysates were incubated with streptavidin-coated AlphaScreen® donor beads, anti-mouse IgG AlphaScreen® acceptor beads, a biotinylated anti-ERK1/2 rabbit antibody, and a mouse antibody that recognizes ERK1/2 only when it is phosphorylated on Thr202 and Tyr204. […] An increase in ERK1/2 phosphorylation at Thr202/Tyr204 brings the donor and acceptor AlphaScreen® beads into close proximity, generating a signal that can be quantified on an EnVision reader (Perkin Elmer).
Phospho-ERK immunoblot analysis: Western blots were performed by standard techniques and analyzed on an Odyssey Infrared Scanner (Li-COR Biosciences). […]

NIH/3T3 cells stably expressing KIAA1549-BRAF fusions, sequence (P15056 448-766 limits assumed): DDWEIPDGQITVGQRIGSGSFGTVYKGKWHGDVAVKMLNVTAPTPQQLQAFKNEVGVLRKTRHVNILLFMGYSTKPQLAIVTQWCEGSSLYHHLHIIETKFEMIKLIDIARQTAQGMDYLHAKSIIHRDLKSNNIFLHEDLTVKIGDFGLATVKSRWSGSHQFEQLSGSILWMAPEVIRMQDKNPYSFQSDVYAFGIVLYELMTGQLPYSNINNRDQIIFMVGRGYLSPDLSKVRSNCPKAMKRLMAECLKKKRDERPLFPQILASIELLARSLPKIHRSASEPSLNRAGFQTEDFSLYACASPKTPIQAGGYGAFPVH
BRAF_V600A, sequence (P15056 432-726 V600A): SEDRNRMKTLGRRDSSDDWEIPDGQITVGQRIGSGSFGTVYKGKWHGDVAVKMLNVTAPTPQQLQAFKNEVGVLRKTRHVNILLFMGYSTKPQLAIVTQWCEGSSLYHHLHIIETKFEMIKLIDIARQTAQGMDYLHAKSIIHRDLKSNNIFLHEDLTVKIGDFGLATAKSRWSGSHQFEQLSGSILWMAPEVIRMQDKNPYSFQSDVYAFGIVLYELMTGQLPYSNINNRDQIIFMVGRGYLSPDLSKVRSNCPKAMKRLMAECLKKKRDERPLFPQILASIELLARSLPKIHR
BRAF_V600K, sequence (P15056 448-723 V600K): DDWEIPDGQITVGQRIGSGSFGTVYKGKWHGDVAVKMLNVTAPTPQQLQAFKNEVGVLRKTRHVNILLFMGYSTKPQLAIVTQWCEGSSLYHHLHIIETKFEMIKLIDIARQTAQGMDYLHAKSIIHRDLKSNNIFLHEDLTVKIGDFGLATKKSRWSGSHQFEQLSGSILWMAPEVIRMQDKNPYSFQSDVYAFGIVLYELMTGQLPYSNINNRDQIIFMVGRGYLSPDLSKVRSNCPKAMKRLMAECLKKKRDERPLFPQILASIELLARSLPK
BRAF_V600R, sequence (P15056 448-723 V600R): as the sequence (P15056 448-723 V600K) above, with K153R counted along it

| Structure (SMILES) | IC50 [1] [µM] | IC50 [2] [µM] | Inhibition of BRAF-V600E in vemurafenib-resistant C3 (in words) [3] | IC50 [4] [µM] | IC50 [5] [µM] | IC50 [6] [µM] | IC50 [7] [µM] | IC50 [8] [µM] | Inhibition of BRAF-V600E in SK-MEL-239 parental (in words) [9] | Inhibition of xenograft growth (tumor volume) [10] [%] | Change of pERK levels in A431 (in words) [11] |
| --- | --- | --- | --- | --- | --- | --- | --- | --- | --- | --- | --- |
| O=C(c1c(F)ccc(NS(=O)(=O)N2CC[C@@H](F)C2)c1F)c1c[nH]c2ncc(-c3cnc(C4CC4)nc3)cc12 [Formula I, (3R)—N-[3-[5-(2-cyclopropylpyrimidin-5-yl)-1H-pyrrolo[2,3-b]pyridine-3-carbonyl]-2,4-difluorophenyl]-3-fluoropyrrolidine-1-sulfonamide] | 0.0142 | > 10 | potent inhibitor | 0.0039 | > 10 | > 10 | 0.84 | 0.0035 | potent inhibitor | ≥ 50 |  |
| CCN(C)S(=O)(=O)Nc1ccc(F)c(C(=O)c2c[nH]c3ncc(-c4cnc(C5CC5)nc4)cc23)c1F [Formula II, 5-(2-cyclopropylpyrimidin-5-yl)-3-[3-[[ethyl(methyl)sulfamoyl]amino]-2,6-difluoro-benzoyl]-1H-pyrrolo[2,3-b]pyridine] |  |  |  |  |  |  |  |  |  |  | did not increase pERK levels |
